Experimental data as given in ChEMBL document CHEMBL1139957, “Synthesis of furanosyl alpha-C-glycosides derived from 4-chloro-4-deoxy-alpha-D-galactose and their cytotoxic activities” (2007).

Experiments:
Assay type in all cases: functional
A549 [1] = experiment: Cytotoxicity against human A549 cells at 50 umol/mL after 48 hrs by MTT assay
A549 [2] = experiment: Cytotoxicity against human A549 cells at 100 umol/mL after 48 hrs by MTT assay
A549 [3] = experiment: Cytotoxicity against human A549 cells at 200 umol/mL after 48 hrs by MTT assay

| SMILES | Inhibition (A549 [1]) | Inhibition (A549 [2]) | Inhibition (A549 [3]) |
| --- | --- | --- | --- |
| CCOC(=O)c1cc([C@H]2OC[C@@H](OS(C)(=O)=O)[C@@H]2Cl)oc1C | 15.3% | 18.55% | 27.87% |
| CC(=O)c1cc([C@H]2OC[C@@H](N=[N+]=[N-])[C@@H]2Cl)oc1C | 32.73% | 48.6% | 56.7% |
| CCOC(=O)c1cc([C@H]2OC[C@@H](O)[C@@H]2Cl)oc1C | 15.15% | 18.51% | 25.72% |
| CCOC(=O)c1cc([C@H]2OC[C@@H](N=[N+]=[N-])[C@@H]2Cl)oc1C | 18.28% | 19.79% | 36.89% |
| COC(=O)c1cc([C@H]2OCC(=O)[C@@H]2Cl)oc1C | 21.49% | 28.55% | 37.67% |
| CC(=O)c1cc(C2OC[C@@H](O)[C@@H]2O)oc1C (stereo partly drawn) | 23.14% | 27.4% | 33.09% |
| CC(=O)c1cc([C@H]2OC[C@@H](O)[C@@H]2Cl)oc1C | 24.36% | 31.92% | 39.36% |
| CCOC(=O)c1cc([C@H]2OCC(=O)[C@@H]2Cl)oc1C | 28.81% | 31.36% | 45.68% |
| CC(=O)c1cc([C@H]2OC[C@@H](N)[C@@H]2Cl)oc1C | 13.04% | 24.86% | 34.57% |
| CCOC(=O)c1cc([C@H]2OC[C@@H](N)[C@@H]2Cl)oc1C | 10.09% | 16.29% | 24.82% |
| CC(=O)c1cc([C@H]2OC[C@@H](OS(C)(=O)=O)[C@@H]2Cl)oc1C | 26.42% | 35.65% | 46.8% |
